Experimental data as given in patent publication EP2329817A1, “Retinoic acid receptor antagonists, miR-10a inhibitors and inhibitors of HOXB1 or HOXB3 repressors for treating pancreatic cancer” (Ernst-Moritz-Arndt-Universität Greifswald, priority 2009, dated 2011).

Tested on: xenotransplanted primary human tumours
Assay: Zebrafish embryo xenotransplantation of pretreated fragments of resected primary human tumours
Assay type: in vivo
Details: for Migration <5 / Migration 5 to 20 / Migration >20 / total >5 / total >5, final line, number: number of embryos; for total >5, final line, per cent / total >5, final line, number: whole experiment; for presence of micro-metastases at 3dpl, Migration 5 to 20: number in square brackets
Description: Zebrafish (Danio rerio) (Tuebingen line, AIB strain (Albinos) and Tg (fli1:eGFP) were handled in compliance with local animal care regulations and standard protocols of the Netherlands and Germany. Fish were kept at 28°C in aquaria with day/night light cycles (10 h dark versus 14 h light periods). The developing embryos were kept in an incubator at constant temperatures.
Cells were stained with CM-Dil (red fluorescence) at a 1:1000 dilution according to the manufacturers protocol (Vybrant, Invitrogen). Cells were suspended in 67% DPBS for injection into embryos. 2dpf zebrafish embryos were dechorionated and tranquilized with tricaine (Sigma). An injection needle (15µm diameter) with a manual injector (Eppendorf; Celltram Vario) was used to inject ∼200 cells into the yolk sac of 2dpf zebrafish embryos. On average 80 embryos were injected for each treatment and embryos with detectable cell scatter 2 h after the transfer (and therefore presumably due to the transfer procedure) were excluded from further analysis. Presence of cells was checked after 2 h incubation at 31°C and embryos were subsequently kept at 35°C. We defined metastasis based on the number of fluorescent cells that were detected outside the yolk sac 2 days after the transfer. Presence of 5 or more cells was considered "metastasised" and percentages of metastasised fish in each experiment were counted. The occurence of micro-metastasis is indicated by cell clusters of ≥4 cells presumably originating from cell division. PaTu-S cells and ASPC1 cells were transfected ON with indicated concentrations of miR-10a siRNA in the presence of ICA-Fectin TM442 (Eurogentec, Belgium). Whole cell lysates were prepared 36h post-transfection and 40 µg of total lysates were separated on 7.5% PAA-gels and blotted with anti E-cadherin, α-catenin, β-catenin (all mAbs, Transduction Labs) and actin antibodies (mAb Sigma-Aldrich, Germany).
Human resection specimens were obtained at the Universitätsklinikum Greifswald according to local ethical guidelines and after obtaining informed patient consent. Tumour tissue was cut into small pieces using a scalpel blade. Tissue fragments were then washed with 67% DPBS and stained with 1:500 CM-Dil. Stained tissue fragments of approximal ^1/5 to ½ the size of the yolk sac were transferred with a glass transplantation needle into the yolk. After 2 h at 31 °C the embryos were checked that the yolk had sealed itself and the embryos were incubated at 35°C for the remainder of the experiment.
Small tissue fragments from two well differentiated ductal adenocarcinoma resection specimen of the Pancreas head (2 and 3) were incubated with miR-10a Morpholino or RARα inhibitor and, following staining with carbocyanine dye (CM-Dil), transplanted into zebrafish embryos (Controls: DMSO and control-Morpholino). Formation of micrometastases in the fish was assessed at 3 dpi by analysis of present cell aggregates (including daughter cells) outside the yolk sac. […] Tumour grading and classification was done according to histopathological examination.

## CCCCCCCOc1cc2c(cc1/C(C)=C/c1ccc(C(=O)O)cc1)C(C)(C)CCS2(=O)=O [Ro-41-5253, Benzoic acid, 4-(2-(7-(heptyloxy)-3,4-dihydro-4,4-dimethyl-2H-1-benzothiopyran-6-yl)-1-propenyl)-, S,S-dioxide, (E)]
Patient 1 (adenocarcinoma of the ampulla vateri, G3), Day 1
  Migration <5: 1
Patient 1, Day 1
  Migration 5 to 20: 2
  Migration >20: 0
  total >5: 2
Patient 1, Day 2
  Migration 5 to 20: 2
  Migration <5: 0
  Migration >20: 0
  total >5: 2
Patient 1, Day 3
  Migration 5 to 20: 1
  Migration <5: 0
  Migration >20: 0
  total >5: 2
Patient 1
  total >5, final line, per cent: 3.1%
  total >5, final line, number: 2
Patient 2 (well-differentiated adenocarcinoma of the pancreas, G2), Day 1
  Migration <5: 1
Patient 2, Day 1
  Migration 5 to 20: 3
  Migration >20: 0
  total >5: 3
Patient 2, Day 2
  Migration 5 to 20: 2
  Migration <5: 1
  Migration >20: 0
  total >5: 2
Patient 2, Day 3
  Migration 5 to 20: 1
  Migration <5: 0
  Migration >20: 0
  total >5: 1
Patient 2
  total >5, final line, per cent: 4.3%
  total >5, final line, number: 3
Patient 3 (well-differentiated adenocarcinoma of the pancreas, G2), Day 1
  Migration <5: 0
Patient 3, Day 1
  Migration 5 to 20: 3
  Migration >20: 0
  total >5: 3
Patient 3, Day 2
  Migration 5 to 20: 3
  Migration <5: 0
  Migration >20: 0
  total >5: 3
Patient 3, Day 3
  Migration 5 to 20: 3
  Migration <5: 0
  Migration >20: 0
  total >5: 3
Patient 3
  total >5, final line, per cent: 4.5%
  total >5, final line, number: 3
Table 2, Patient 1
  total >5 [%]: 3.1%
  presence of micro-metastases at 3dpl, Migration 5 to 20: 0
  Migration 5 to 20: 2
  Migration <5: 0
  Migration >20: 0
Table 2, Patient 2
  total >5 [%]: 4.3% 4.4x10^-5
  presence of micro-metastases at 3dpl, Migration 5 to 20: 0
  Migration 5 to 20: 3
  Migration <5: 1
  Migration >20: 0
Table 2, Patient 3
  total >5 [%]: 4.5%
  presence of micro-metastases at 3dpl, Migration 5 to 20: 0
  Migration 5 to 20: 3
  Migration <5: 0
  Migration >20: 0
Compared to the DMSO treated control tissue of the same tumour specimen
  reduction of invasiveness and metastatic behaviour: > 95%
p< 0.001, student t-test
  metastatic behavior of treated specimen: significant decrease
